Measurements taken from the NIST ThermoML archive (doi:10.1021/je025625m).

Experiment: excess molar enthalpy (molar enthalpy of mixing); xn = mol fraction of the nth substance listed
Settings: 298.15 K, 101 kPa, Liquid

CCCCCCCl [1-chlorohexane] + c1ccccc1
Settings	excess molar enthalpy [kcal/mol]
x2 = 0.0723	0.00146
x2 = 0.0744	0.0017
x2 = 0.0805	0.00146
x2 = 0.0888	0.00167
x2 = 0.1407	0.00311
x2 = 0.1427	0.00351
x2 = 0.1437	0.00351
x2 = 0.2125	0.00538
x2 = 0.2862	0.00791
x2 = 0.3323	0.00992
x2 = 0.394	0.0127
x2 = 0.4431	0.0156
x2 = 0.5015	0.0189
x2 = 0.5375	0.0208
x2 = 0.541	0.0208
x2 = 0.5524	0.0218
x2 = 0.582	0.0229
x2 = 0.6153	0.0245
x2 = 0.6575	0.0256
x2 = 0.7164	0.0265
x2 = 0.7288	0.0266
x2 = 0.7352	0.0262
x2 = 0.7928	0.025
x2 = 0.8215	0.0242
x2 = 0.8484	0.0224
x2 = 0.8629	0.0207
x2 = 0.894	0.0174
x2 = 0.9274	0.0132
x2 = 0.9535	0.00918
